ChEMBL document CHEMBL1201862, “PubChem BioAssay data set” (2004)
Activity calls are given as the source filed them.

Tests used:
[1] = molecular target: T1, RNA-binding protein pos-1 (Caenorhabditis elegans, UniProt G5EF15); experiment: inhibitors of POS-1/mex-3 RNA binding, dose response, biochemical, fluorescence polarization (AID 1964);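 further: purified POS-1 fused to maltose binding protein made in E. coli; potency of compounds blocking POS-1 binding to fluorescent RNA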
T1 sequence (G5EF15 whole entry): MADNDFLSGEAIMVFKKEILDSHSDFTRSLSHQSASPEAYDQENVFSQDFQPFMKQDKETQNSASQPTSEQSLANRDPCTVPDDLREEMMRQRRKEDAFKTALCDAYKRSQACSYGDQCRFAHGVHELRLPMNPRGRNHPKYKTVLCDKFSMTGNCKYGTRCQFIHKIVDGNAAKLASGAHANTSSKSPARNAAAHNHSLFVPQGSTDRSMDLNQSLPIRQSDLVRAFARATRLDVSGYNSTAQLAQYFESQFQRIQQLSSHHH

[2] = test system: Streptococcus sp. 'group A'; experiment: growth inhibition of control SK(-) GAS strain, dose response, counter-screen for streptokinase expression inhibitor project, luminescence, kanamycin, BacTiterGlo, confirmation (AID 1900); format: functional, organism-based
[3] = molecular target: T2, Zinc finger protein mex-5 (Caenorhabditis elegans, UniProt Q9XUB2); experiment: MEX-5/TCR-2 RNA interaction inhibitors, dose response, biochemical, C. elegans, fluorescence polarization (AID 1960)
T2 sequence (Q9XUB2 whole entry): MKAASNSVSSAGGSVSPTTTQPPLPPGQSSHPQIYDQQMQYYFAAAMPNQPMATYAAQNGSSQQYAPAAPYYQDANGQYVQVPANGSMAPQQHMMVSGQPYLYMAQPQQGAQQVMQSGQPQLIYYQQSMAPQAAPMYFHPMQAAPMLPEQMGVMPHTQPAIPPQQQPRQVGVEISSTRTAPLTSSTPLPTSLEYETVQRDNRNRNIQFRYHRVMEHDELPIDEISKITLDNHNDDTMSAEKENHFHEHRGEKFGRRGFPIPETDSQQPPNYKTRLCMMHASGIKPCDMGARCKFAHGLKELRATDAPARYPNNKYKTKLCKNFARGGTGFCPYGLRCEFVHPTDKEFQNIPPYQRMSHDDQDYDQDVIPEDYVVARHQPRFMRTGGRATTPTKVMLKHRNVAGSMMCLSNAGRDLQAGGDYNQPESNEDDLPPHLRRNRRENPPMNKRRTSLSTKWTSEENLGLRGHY

Streptokinase A = molecular target: T3, Streptokinase A (Streptococcus pyogenes serotype M1, UniProt P10520); experiment: S. pyogenes streptokinase expression inhibitors, potency, dose response, plasminogen activation absorbance, OD405 (AID 1914); format: functional, Streptococcus pyogenes M1 GAS;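 further: secreted streptokinase activity via plasminogen activation per viability signal from cell pellet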
T3 sequence (P10520 whole entry): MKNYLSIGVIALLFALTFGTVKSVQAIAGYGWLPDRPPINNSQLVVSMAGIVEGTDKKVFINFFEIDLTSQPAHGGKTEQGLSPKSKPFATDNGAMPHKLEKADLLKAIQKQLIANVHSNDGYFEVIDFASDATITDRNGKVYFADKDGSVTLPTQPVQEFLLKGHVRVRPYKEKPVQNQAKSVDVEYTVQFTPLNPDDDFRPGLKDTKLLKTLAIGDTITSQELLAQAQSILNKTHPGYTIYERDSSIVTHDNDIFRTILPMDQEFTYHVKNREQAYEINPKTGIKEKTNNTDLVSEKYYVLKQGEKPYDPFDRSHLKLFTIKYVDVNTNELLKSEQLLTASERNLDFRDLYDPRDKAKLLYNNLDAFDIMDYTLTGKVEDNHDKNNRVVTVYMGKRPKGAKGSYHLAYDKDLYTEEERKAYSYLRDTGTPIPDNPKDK

[4] = HIV-1 Env-mediated cell fusion inhibitors, dose response, CCR5-tropic Env (AID 2279); format: functional
Streptococcus = experiment: Group A Streptococcus viability loss, dose response, counter-screen for streptokinase expression inhibitor project, luminescence, BacTiterGlo (AID 1915); format: functional, organism-based;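 further: potency for reduction of bacterial viability or growth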
[5] = molecular target: Heat shock protein HSP 90-alpha (Homo sapiens, UniProt P07900); format: functional, organism-based
Vero [6] = experiment: Vero cell cytotoxicity, cytotoxicity control for flavivirus capping enzyme inhibitors (AID 588742); format: functional; conditions: Chlorocebus sabaeus
Vero [7] = experiment: cells; format: functional, cell-based; conditions: Chlorocebus sabaeus
Vero [8] = experiment: cells; format: functional; conditions: Chlorocebus sabaeus
Genome polyprotein = Genome polyprotein (dengue virus type 2, UniProt P29990); experiment: Dengue-2 NS5 methyltransferase inhibitors, primary screen, biochemical, confirmation dose response (AID 588689); format: functional
Chain of Genome polyprotein (P29990 2492-3391 limits assumed): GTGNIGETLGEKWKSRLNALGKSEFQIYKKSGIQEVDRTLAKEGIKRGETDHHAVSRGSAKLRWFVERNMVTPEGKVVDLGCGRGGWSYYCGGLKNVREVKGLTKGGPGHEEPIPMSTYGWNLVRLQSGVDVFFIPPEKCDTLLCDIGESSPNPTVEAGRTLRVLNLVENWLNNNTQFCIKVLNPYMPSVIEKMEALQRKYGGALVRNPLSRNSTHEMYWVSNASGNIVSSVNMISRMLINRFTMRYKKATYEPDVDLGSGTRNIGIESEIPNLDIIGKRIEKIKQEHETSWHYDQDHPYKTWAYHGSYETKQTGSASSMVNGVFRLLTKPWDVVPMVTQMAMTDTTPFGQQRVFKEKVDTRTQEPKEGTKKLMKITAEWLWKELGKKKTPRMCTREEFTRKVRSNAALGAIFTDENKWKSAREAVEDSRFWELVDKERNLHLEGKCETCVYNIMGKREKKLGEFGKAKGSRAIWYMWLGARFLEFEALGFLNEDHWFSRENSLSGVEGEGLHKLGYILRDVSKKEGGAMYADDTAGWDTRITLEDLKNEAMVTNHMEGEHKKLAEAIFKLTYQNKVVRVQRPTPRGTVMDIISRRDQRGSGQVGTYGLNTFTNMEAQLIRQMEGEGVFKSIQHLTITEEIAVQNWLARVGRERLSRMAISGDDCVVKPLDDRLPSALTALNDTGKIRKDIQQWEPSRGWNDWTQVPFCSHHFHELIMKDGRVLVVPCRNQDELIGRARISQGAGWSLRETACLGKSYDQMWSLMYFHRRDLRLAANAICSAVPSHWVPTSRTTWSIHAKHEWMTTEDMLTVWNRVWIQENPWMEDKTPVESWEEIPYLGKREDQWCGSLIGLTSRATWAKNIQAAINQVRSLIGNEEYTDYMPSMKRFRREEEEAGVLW

[9] = molecular target: DNA (cytosine-5)-methyltransferase 1 (Homo sapiens, UniProt P26358); experiment: DNMT1 methyltransferase inhibitors, confirmation, biochemical, fluorescent molecular beacon (AID 602386); format: functional
Chain of DNA (cytosine-5)-methyltransferase 1 (P26358 whole entry): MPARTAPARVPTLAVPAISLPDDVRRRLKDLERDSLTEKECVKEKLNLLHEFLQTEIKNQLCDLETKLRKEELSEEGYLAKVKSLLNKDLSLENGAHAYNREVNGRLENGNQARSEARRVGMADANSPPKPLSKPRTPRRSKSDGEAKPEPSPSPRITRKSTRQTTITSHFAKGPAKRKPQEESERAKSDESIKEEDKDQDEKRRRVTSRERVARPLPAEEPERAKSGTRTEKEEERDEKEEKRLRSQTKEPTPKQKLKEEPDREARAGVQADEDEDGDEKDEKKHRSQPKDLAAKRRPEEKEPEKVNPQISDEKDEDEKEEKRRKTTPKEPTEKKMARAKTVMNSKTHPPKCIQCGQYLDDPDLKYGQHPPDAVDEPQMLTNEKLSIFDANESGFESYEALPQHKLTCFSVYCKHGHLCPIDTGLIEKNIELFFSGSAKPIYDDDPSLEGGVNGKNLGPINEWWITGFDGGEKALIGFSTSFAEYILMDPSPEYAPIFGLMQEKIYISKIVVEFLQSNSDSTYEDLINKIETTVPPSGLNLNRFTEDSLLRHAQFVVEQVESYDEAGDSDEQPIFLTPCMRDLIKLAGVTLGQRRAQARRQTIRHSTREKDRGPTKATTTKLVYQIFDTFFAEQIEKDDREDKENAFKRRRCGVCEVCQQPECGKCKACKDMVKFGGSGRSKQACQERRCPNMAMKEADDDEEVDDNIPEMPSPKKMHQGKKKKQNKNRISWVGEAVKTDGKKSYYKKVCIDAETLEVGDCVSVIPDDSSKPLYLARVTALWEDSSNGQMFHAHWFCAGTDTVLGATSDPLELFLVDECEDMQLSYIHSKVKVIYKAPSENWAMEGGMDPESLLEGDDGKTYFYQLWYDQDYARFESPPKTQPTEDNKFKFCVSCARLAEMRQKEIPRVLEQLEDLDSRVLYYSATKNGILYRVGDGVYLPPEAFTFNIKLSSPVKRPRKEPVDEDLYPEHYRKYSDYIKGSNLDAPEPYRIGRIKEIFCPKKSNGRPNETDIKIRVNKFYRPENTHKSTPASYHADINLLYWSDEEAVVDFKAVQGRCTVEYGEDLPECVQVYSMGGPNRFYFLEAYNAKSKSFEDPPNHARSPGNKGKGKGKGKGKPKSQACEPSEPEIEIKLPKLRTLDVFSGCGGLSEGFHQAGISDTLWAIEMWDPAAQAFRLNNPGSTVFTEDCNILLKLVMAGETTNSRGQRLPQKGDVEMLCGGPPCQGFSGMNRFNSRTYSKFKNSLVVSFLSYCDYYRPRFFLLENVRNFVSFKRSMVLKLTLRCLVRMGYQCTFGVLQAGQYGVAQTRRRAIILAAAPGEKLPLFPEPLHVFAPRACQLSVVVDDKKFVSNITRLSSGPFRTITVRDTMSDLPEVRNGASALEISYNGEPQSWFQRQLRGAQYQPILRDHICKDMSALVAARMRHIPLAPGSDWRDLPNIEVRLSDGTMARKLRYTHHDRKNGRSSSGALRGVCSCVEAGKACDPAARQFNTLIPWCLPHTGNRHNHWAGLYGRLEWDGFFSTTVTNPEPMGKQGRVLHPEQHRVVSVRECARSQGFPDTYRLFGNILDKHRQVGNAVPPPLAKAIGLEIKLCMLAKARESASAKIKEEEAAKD

[10] = inhibitors of Bluetongue virus cytopathic effect, confirmation, arbovirus, BSR cells (AID 1250); format: functional;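 further: protection from viral cytopathic effect measured as cell viability by ATP luminescence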
[11] = molecular target: Luciferin 4-monooxygenase (Photinus pyralis, UniProt P08659); experiment: Counter Screen for Luciferase-based Assay Positives. [Related pubchem assays: 620, 618, 411 ]
[12] = Luminescence Cell-Based Dose Response HTS to Identify Inhibitors of 5'UTR Stem-Loop Driven Prion Protein mRNA Translation in H4 Neuroglioblastoma Cells. [Related pubchem assays: 1827 (Project Summary), 1813 (Primary HTS)]; format: functional
[13] = inhibitors of SNCA 5'UTR-driven reporter translation, confirmation, H4 neuroglioma cells, luminescence (AID 1988); format: functional, cell-based
HT-1080 = experiment: cytotoxicity in HT1080 fibrosarcoma cells, cell-based, fluorescence readout (AID 620); format: functional; conditions: Homo sapiens
[14] = molecular target: T4, Oxysterols receptor LXR-beta (Homo sapiens, UniProt P55055); format: functional, cell-based;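 further: Cell-based luminescence dose-response assay of agonist activity at LXR, run as a confirmatory counterscreen to a daf-12 agonist screen; HEK293 cells with Gal4-LXR fusion and GAL4-driven luciferase reporter; agonist potency from rising luciferase signal of a Gal4-LXR reporter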
T4 sequence (P55055 whole entry): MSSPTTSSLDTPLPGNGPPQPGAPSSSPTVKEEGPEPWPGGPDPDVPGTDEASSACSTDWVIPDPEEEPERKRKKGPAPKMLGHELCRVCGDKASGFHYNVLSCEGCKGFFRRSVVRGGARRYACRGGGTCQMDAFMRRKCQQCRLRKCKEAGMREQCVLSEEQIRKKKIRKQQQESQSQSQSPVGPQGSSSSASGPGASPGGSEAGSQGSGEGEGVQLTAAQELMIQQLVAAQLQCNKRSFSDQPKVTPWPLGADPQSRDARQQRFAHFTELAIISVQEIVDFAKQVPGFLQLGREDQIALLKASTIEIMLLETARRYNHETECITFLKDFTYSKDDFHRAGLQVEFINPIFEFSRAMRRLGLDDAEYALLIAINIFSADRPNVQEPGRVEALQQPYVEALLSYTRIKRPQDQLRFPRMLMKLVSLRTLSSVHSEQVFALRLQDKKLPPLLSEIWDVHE

[15] = molecular target: T5, Kappa-type opioid receptor (Homo sapiens, UniProt P41145); experiment: SAR analysis of small molecule agonists of the kappa opioid receptor via a luminescent beta-arrestin assay. [Related pubchem assays (depositor defined):AID1777, AID1786, AID1966, AID2133, AID2136, AID2348, AID2352, AID2357, AID2359, AID2370, AID2420, AID2478, AID2491, AID2492, AID2493, AID2497, AID2498, AID2500, AID449737, AID488822, AID488842]; format: functional
T5 sequence (P41145 whole entry): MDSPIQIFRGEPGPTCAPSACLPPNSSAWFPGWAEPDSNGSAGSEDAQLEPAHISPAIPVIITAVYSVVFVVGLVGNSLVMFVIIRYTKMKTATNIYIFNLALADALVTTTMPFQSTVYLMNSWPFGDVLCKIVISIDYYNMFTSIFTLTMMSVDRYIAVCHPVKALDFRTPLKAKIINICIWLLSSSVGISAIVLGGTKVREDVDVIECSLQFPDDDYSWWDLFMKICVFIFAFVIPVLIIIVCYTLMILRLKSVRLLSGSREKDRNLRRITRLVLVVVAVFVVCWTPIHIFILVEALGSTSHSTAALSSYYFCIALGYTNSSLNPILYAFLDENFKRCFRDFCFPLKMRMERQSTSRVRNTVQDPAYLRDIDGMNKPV

Mu-type opioid receptor [16] = molecular target: T6, Mu-type opioid receptor (Homo sapiens, UniProt P35372); experiment: MOR agonists by imaging, SAR follow-up, image-based (AID 2352); format: functional
T6 sequence (P35372 whole entry): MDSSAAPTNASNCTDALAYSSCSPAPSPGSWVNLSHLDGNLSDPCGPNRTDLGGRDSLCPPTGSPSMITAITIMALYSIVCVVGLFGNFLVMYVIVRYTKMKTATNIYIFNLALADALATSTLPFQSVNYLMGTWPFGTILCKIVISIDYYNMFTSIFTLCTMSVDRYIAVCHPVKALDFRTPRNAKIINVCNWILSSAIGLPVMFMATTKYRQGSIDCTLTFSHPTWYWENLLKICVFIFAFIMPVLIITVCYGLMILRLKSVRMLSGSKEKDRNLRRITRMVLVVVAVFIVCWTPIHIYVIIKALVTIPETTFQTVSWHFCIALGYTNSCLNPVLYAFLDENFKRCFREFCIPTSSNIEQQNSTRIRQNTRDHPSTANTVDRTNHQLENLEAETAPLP

[17] = molecular target: T7, Delta-type opioid receptor (Homo sapiens, UniProt P41143); experiment: DOR agonists, SAR follow-up, image-based (AID 2370); format: functional
T7 sequence (P41143 whole entry): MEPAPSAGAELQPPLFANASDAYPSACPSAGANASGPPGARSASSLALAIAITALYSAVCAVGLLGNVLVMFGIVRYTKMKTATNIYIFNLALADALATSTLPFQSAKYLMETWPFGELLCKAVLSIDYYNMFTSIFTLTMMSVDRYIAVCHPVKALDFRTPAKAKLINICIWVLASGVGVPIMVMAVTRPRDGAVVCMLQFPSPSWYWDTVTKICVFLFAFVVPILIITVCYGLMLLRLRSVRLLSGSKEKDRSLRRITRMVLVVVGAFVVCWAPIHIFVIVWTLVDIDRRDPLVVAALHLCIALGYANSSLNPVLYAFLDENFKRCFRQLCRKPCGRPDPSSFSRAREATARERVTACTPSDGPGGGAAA

[18] = molecular target: T5, Kappa-type opioid receptor; experiment: KOR antagonists by imaging, SAR follow-up, image-based (AID 2348); format: functional
Mu-type opioid receptor [19] = molecular target: T6, Mu-type opioid receptor; experiment: MOR antagonists, SAR follow-up, image-based (AID 2420); format: functional;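 further: compounds added before stimulation of receptor with agonist DAMGO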
[20] = molecular target: T5, Kappa-type opioid receptor; experiment: KOR agonist analogs, imaging readout, SAR follow-up, image-based (AID 2359); format: functional
[21] = molecular target: T7, Delta-type opioid receptor; experiment: DOR antagonists, SAR follow-up, image-based (AID 2357); format: functional
Staphylococcus aureus = experiment: Inhibitors of Bacterial Quorum Sensing Structure Activity Relationship (SAR) Analysis: Dose Response Assay. [Related pubchem assays: 700, 527 ]; format: functional, organism-based
[22] = molecular target: Eukaryotic translation initiation factor 4H (Homo sapiens, UniProt Q15056); experiment: human eIF4H binding inhibitors, primary screen, translation initiation inhibitor project, biochemical, uHTS, fluorescence polarization (AID 2012)
[23] = molecular target: Polyadenylate-binding protein 1 (Homo sapiens, UniProt P11940); experiment: PABP poly(A) RNA binding inhibitors, primary screen, biochemical, fluorescence polarization, uHTS (AID 2014)
Chain of Polyadenylate-binding protein 1 (P11940 whole entry): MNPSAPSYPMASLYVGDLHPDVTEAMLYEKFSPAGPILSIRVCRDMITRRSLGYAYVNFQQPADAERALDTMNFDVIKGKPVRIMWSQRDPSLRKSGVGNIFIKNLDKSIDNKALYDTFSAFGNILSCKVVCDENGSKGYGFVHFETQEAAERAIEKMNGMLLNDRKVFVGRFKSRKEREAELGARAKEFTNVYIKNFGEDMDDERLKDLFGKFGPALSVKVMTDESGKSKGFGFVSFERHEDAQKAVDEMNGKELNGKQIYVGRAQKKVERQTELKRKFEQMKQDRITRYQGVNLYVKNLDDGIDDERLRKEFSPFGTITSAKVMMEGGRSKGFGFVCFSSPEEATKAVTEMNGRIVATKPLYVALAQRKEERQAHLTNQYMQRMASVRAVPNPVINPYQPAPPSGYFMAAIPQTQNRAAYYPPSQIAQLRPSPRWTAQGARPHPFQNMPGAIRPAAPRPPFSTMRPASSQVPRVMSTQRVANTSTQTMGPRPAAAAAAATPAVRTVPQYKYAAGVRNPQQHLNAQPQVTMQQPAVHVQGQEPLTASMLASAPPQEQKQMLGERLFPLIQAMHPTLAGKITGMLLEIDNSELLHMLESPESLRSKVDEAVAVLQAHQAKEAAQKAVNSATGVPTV

COc1ccc(C(=O)/C=C/c2ccc(-c3ccccc3)cc2)cc1CSCC(=O)O
EC50 [1]: > 300 µM (not active)
EC50 [2]: 4.28 µM (active)
EC50 [3]: > 300 µM (not active)
EC50 (Streptokinase A): 8.81 µM (active)
IC50 [4]: 9.89 µM (active)
EC50 (Streptococcus): > 150 µM (not active)
AC50 [5]: 9.3 µM (active)
CC50 (Vero [6]): 29.5 µM (active)
IC50 (Vero [7]): > 25 µM (active)
CC50 (Vero [8]): > 25 µM (active)
IC50 (Genome polyprotein): 37.7 µM (active)
IC50 [9]: 9.8 µM (active)

C=CCN(CC=C)C(=S)NC(=O)Cc1cccc2ccccc12
IC50 [10]: 31.6 µM (active)

Cc1ccc(-c2nc3n(n2)Cc2ccccc2-3)cc1
EC50 [11]: 2.87 µM (active)
EC50 [12]: 0.364 µM (active)
EC50 [13]: 6.59 µM (active)
EC50 (HT-1080): > 50 µM (not active)
EC50 [14]: > 67.5 µM (inactive)
EC50 (cells): > 67.5 µM (inactive)

Cc1cccc(-n2ccnc2CN2CCC(CO)(CC3CCCCO3)CC2)c1 (centres undefined)
EC50 [15]: > 10 µM (inactive)
EC50 (Mu-type opioid receptor [16]): > 32 µM (inactive)
EC50 [17]: > 32 µM (inactive)
IC50 [18]: > 32 µM (inactive)
IC50 (Mu-type opioid receptor [19]): > 32 µM (inactive)
EC50 [20]: 5.82 µM (active)
IC50 [21]: > 32 µM (inactive)

CCCCc1oc2ccccc2c1C(=O)c1ccc(O)cc1
IC50 (Staphylococcus aureus): 0.544 µM (active)

O=C(O)c1ccc(N/N=C/c2cc3c(cc2[N+](=O)[O-])OCO3)cc1
IC50 [22]: 21.8 µM (active)
IC50 [23]: 48.8 µM (active)
